Measurements as given in patent US20120252791A1, “Heterocyclic GTP Cyclohydrolase 1 Inhibitors For the Treatment of Pain” (priority 2009, published 2012).
Where two headings read alike, the source gives them in different places.

Target: T1, GCH-1 (Homo sapiens, UniProt P30793)
T1 sequence (P30793 1-250): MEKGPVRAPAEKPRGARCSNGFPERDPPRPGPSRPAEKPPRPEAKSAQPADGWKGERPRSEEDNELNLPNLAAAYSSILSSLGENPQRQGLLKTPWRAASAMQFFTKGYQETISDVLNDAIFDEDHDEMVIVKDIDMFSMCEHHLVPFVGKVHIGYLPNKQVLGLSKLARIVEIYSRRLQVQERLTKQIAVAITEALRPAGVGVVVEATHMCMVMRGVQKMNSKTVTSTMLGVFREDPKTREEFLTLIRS
Experiment: LC/MS assay monitoring GTP consumption and neopterin formation by GCH-1
Assay type: biochemical
Conditions: 2 μM GCH-1, 120 μM GTP, 1 hour at 37° C.
Experimental: This method is based on transformations known in the art (see, for example, Xie et al., J. Biol. Chem. 273(33):21091-21098, 1998). The LC-MS assay is carried out by the following steps.
(1) GCH-1 reaction • 2 μM GCH-1, 120 μM GTP, 1 hour incubation at 37° C. (2) Termination of GCH-1 reaction by de-phosphorylation • The reaction is stopped by the addition of excess alkaline phosphatase (2 units/sample) • 1 hour incubation at 37° C. (3) Oxidation of 7,8-dihydroneopterin to get a stabile final product • Oxidation with 0.1 M […] for 1 hour at 37° C. resulting in oxidation of 7,8-dihydroneopterin to neopterin • Termination of the oxidation reaction by addition of ascorbic acid
• Sample analysis using highly specific LC/MS methods to detect guanosine and neopterin in parallel • Data analysis and automated CRC fitting to get IC50 values

[1] = Table 8, LC/MS assay, read-out: IC50

Row | SMILES | IC50 (assay validation with known GCH-1 inhibitors, read-out: IC50 [μM] LC/MS assay) | IC50 [1]
1 | Nc1nc2[nH]c(SCC3CCOCC3)nc2c(=O)[nH]1 [(9)] | – | 39 µM
2 | CCOc1ccccc1NC(=O)CSc1nc2c(O)nc(N)nc2[nH]1 [(56)] | – | 40 µM
3 | Cn1c(=S)[nH]c2nc(N)[nH]c(=O)c21 [Compound (13)] | – | 76 µM
4 | COCCn1cnc2c(=O)[nH]c(N)nc21 [Compound (29)] | – | > 400 µM
5 | Nc1nc2[nH]ccc2c(=O)[nH]1 [Compound (37)] | – | 43 µM
6 | Cn1ccc2c(=O)[nH]c(N)nc21 [Compound (38)] | – | 193 µM
7 | Cc1cn(C)c2nc(N)[nH]c(=O)c12 [Compound (40)] | – | > 400 µM

Next, values leading:

Row | IC50 (assay validation with known GCH-1 inhibitors, read-out: IC50 [μM] LC/MS assay) | IC50 [1] | SMILES
8 | 5 µM | – | Nc1nc2[nH]c(S)nc2c(=O)[nH]1 [8-mercaptoguanine, reference compound]
9 | – | 25 µM | COCCSc1nc2c(=O)[nH]c(N)nc2[nH]1 [(6)]
10 | – | 27 µM | Nc1nc2[nH]c(N)nc2c(=O)[nH]1 [(31)]
11 | – | 14 µM | CCCSc1nc2c(=O)[nH]c(N)nc2[nH]1 [Compound (3)]
12 | – | 85 µM | CCCSc1nc2c(=O)[nH]c(N)nc2n1C [Compound (4)]
